Laboratory results published in the supplement of paper PMC10307832.

Assays:
Experiment in all cases: relative viability (nuclei count vs DMSO), 5 days (fraction); higher = more cells survive
Carboplatin + Tozasertib = compound: C1CC(C1)(C(=O)O)C(=O)O.[NH2-].[NH2-].[Pt+2] [Carboplatin] + Cc1cc(Nc2cc(N3CCN(C)CC3)nc(Sc3ccc(NC(=O)C4CC4)cc3)n2)n[nH]1 [Tozasertib] (partner 0.1 µM)
Outline: (§1)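 Nuclei were stained with Hoechst during a one-step fixation (final 0.05% Triton X-100, 1% formaldehyde, 1 ug/ml Hoechst) carried out 5 days after dosing, then counted on 4× images. The cells, lung cancer lines in 1536-well plates, had been dosed by pin tool the day after seeding with one drug alone or a fixed anchor-drug dose plus five library-drug doses (not always all listed) in √10 steps. Relative viability is the nuclei count in treated wells divided by that in vehicle wells, and each value is the median of duplicate plates.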

GSK126 + Luminespib = compound: CC[C@H](C)N1C=C(C2=C(C=C(C=C21)C3=CN=C(C=C3)N4CCNCC4)C(=O)NCC5=C(C=C(NC5=O)C)C)C [GSK126] + CCNC(=O)c1noc(-c2cc(C(C)C)c(O)cc2O)c1-c1ccc(CN2CCOCC2)cc1 [Luminespib] (partner 0.01 µM)
Outline: as §1

GSK126 + Tozasertib = compound: CC[C@H](C)N1C=C(C2=C(C=C(C=C21)C3=CN=C(C=C3)N4CCNCC4)C(=O)NCC5=C(C=C(NC5=O)C)C)C [GSK126] + Cc1cc(Nc2cc(N3CCN(C)CC3)nc(Sc3ccc(NC(=O)C4CC4)cc3)n2)n[nH]1 [Tozasertib] (partner 0.1 µM)
Outline: as §1

MLN4924 + AZD7762 = compound: NS(=O)(=O)OC[C@@H]1C[C@@H](n2ccc3c(N[C@H]4CCc5ccccc54)ncnc32)C[C@@H]1O [MLN4924] + NC(=O)Nc1cc(-c2cccc(F)c2)sc1C(=O)N[C@H]1CCCNC1 [AZD7762] (partner 0.2 µM)
Outline: as §1

Cell Line | relative viability (Carboplatin + Tozasertib; first compound 0.08 µM) | relative viability (Carboplatin + Tozasertib; first compound 0.253 µM) | relative viability (Carboplatin + Tozasertib; first compound 0.8 µM) | relative viability (Carboplatin + Tozasertib; first compound 2.53 µM) | relative viability (Carboplatin + Tozasertib; first compound 8 µM) | relative viability (GSK126 + Luminespib; first compound 0.08 µM) | relative viability (GSK126 + Luminespib; first compound 0.253 µM) | relative viability (GSK126 + Luminespib; first compound 0.8 µM) | relative viability (GSK126 + Luminespib; first compound 2.53 µM) | relative viability (GSK126 + Luminespib; first compound 8 µM) | relative viability (GSK126 + Tozasertib; first compound 0.08 µM) | relative viability (GSK126 + Tozasertib; first compound 0.253 µM) | relative viability (GSK126 + Tozasertib; first compound 0.8 µM) | relative viability (GSK126 + Tozasertib; first compound 2.53 µM) | relative viability (GSK126 + Tozasertib; first compound 8 µM) | relative viability (MLN4924 + AZD7762; first compound 0.04 µM) | relative viability (MLN4924 + AZD7762; first compound 0.1265 µM) | relative viability (MLN4924 + AZD7762; first compound 0.4 µM) | relative viability (MLN4924 + AZD7762; first compound 1.265 µM) | relative viability (MLN4924 + AZD7762; first compound 4 µM)
NCI-H2342 | 0.555 | 0.529 | 0.502 | 0.406 | 0.547 | 0.731 | 0.875 | 0.799 | 0.857 | 0.878 | 0.538 | 0.471 | 0.613 | 0.507 | 0.597 | 0.412 | 0.568 | 0.551 | 0.523 | 0.452
NCI-H727 | 0.572 | 0.653 | 0.54 | 0.562 | 0.624 | 0.482 | 0.375 | 0.421 | 0.345 | 0.336 | 0.633 | 0.648 | 0.586 | 0.676 | 0.438 | 0.574 | 0.432 | 0.402 | 0.372 | 0.242
PC-3 [JPC-3] | 0.863 | 0.877 | 0.863 | 0.853 | 0.765 | 0.75 | 0.728 | 0.745 | 0.708 | 0.734 | 0.879 | 0.919 | 0.883 | 0.866 | 0.805 | 0.854 | 0.964 | 0.736 | 0.328 | 0.334
NCI-H2347 | 0.54 | 0.547 | 0.637 | 0.633 | 0.56 | 0.757 | 0.701 | 0.308 | 0.392 | 0.267 | 0.664 | 0.603 | 0.635 | 0.597 | 0.444 | 0.904 | 0.834 | 0.536 | 0.252 | 0.242
NCI-H838 | 0.296 | 0.28 | 0.254 | 0.273 | 0.279 | 0.39 | 0.319 | 0.357 | 0.302 | 0.34 | 0.293 | 0.269 | 0.255 | 0.261 | 0.242 | 0.916 | 0.82 | 0.737 | 0.589 | 0.618
HCC-44 | 1.14 | 0.949 | 0.803 | 0.603 | 0.517 | 1.14 | 1.1 | 1 | 1.11 | 1.16 | 0.942 | 0.877 | 0.88 | 0.983 | 0.897 | 1.03 | 0.992 | 0.824 | 0.563 | 0.478
A-427 | 0.188 | 0.237 | 0.238 | 0.219 | 0.221 | 1.29 | 0.87 | 0.82 | 0.884 | 0.769 | 0.227 | 0.245 | 0.189 | 0.226 | 0.162 | 0.502 | 0.324 | 0.366 | 0.172 | 0.217
CAL-12T | 0.338 | 0.289 | 0.329 | 0.413 | 0.382 | 0.605 | 0.552 | 0.45 | 0.496 | 0.636 | 0.324 | 0.358 | 0.301 | 0.189 | 0.184 | 0.522 | 0.514 | 0.365 | 0.274 | 0.247
NCI-H460 | 0.54 | 0.462 | 0.387 | 0.237 | 0.168 | 0.0467 | 0.0392 | 0.0346 | 0.0287 | 0.0416 | 0.419 | 0.33 | 0.574 | 0.352 | 0.103 | 0.575 | 0.772 | 0.621 | 0.206 | 0.0543
ABC-1 | 0.208 | 0.201 | 0.164 | 0.186 | 0.207 | 0.737 | 0.449 | 0.575 | 1.13 | 0.955 | 0.159 | 0.135 | 0.217 | 0.167 | 0.17 | 0.985 | 1.17 | 0.52 | 0.23 | 0.258
SW 900 | 0.682 | 0.479 | 0.56 | 0.399 | 0.314 | 0.206 | 0.188 | 0.165 | 0.173 | 0.213 | 0.577 | 0.534 | 0.635 | 0.632 | 0.51 |  | 0.806 | 0.467 | 0.331 | 0.259
LK-2 | 0.16 | 0.168 | 0.184 | 0.163 | 0.137 | 0.217 | 0.171 | 0.171 | 0.204 | 0.188 | 0.209 | 0.212 | 0.175 | 0.183 | 0.189 | 0.329 | 0.307 | 0.309 | 0.124 | 0.155
NCI-H2085 | 0.899 | 0.875 | 0.727 | 0.902 | 0.788 | 0.52 | 0.514 | 0.414 | 0.406 | 0.623 | 0.918 | 0.734 | 0.76 | 0.72 | 0.654 | 0.989 | 0.972 | 1.07 | 0.941 | 0.603
NCI-H650 | 0.768 | 0.766 | 0.638 | 0.661 | 0.453 | 0.92 | 0.787 | 0.744 | 0.834 | 0.876 | 0.783 | 0.744 | 0.702 | 0.691 | 0.717 | 1.1 | 0.578 | 0.371 | 0.231 | 0.148
NCI-H2170 | 0.732 | 0.687 | 0.642 | 0.71 | 0.535 | 0.655 | 0.924 | 0.595 | 0.546 | 0.722 | 0.697 | 0.661 | 0.764 | 0.651 | 0.661 | 0.9 | 0.536 | 0.544 | 0.147 | 0.112
LC-2-ad | 0.482 | 0.433 | 0.496 | 0.372 | 0.374 | 1 | 1.19 | 0.948 | 1.04 | 1.01 | 0.43 | 0.472 | 0.428 | 0.458 | 0.419 | 0.376 | 0.9 | 0.837 | 0.376 | 0.236
